Experimental data as given in patent US9255090B2, “Heterocyclyl derivatives and their use as prostaglandin D2 receptor modulators” (Actelion Pharmaceuticals Ltd., priority 2012, dated 2016).
Where a name gives a salt, the structure may show the parent alone.

Biological target: hCRTH2 receptor (Homo sapiens (Human), UniProt Q9Y5Y4)
Test: hCRTH2 receptor membranes radioligand (3H-PGD2) displacement assay
Type: binding
Details: 3H-PGD2 radioligand displacement, HEK293-hCRTH2 membranes
Method: Biological Assays: Preparation of hCRTH2 Receptor Membranes and Radioligand Displacement Assay:
First, recombinant HEK293-hCRTH2 cells were detached from culture plates into 5 ml buffer A/plate (Buffer A: 5 mM Tris, 1 mM MgCl2-6H2O pH=7.4) using a rubber policeman. Cells were then transferred into centrifugation tubes and centrifuged for 5 min at 400 g. The cell pellet was resuspended in the same buffer and tubes were frozen at −80° C. Cells were thawed and membrane fragments were generated by homogenization using a polytron homogenizer (30 seconds). The membrane fragments were then centrifuged at 3000 g for 20 minutes and resuspended in buffer C (Buffer C: 75 mM Tris, 25 mM MgCl2, 250 mM Saccharose pH 7.4). Aliquots of membrane fragments were stored at −20° C.
Binding assay was performed in a final assay volume of 250 μl. First, 25 μl of test compound, previously diluted in Binding-Buffer (Binding-Buffer: 50 mM Tris-Base, 100 mM NaCl, 1 mM EDTA, 0.1% BSA (protease free), 0.01% NaN3, 10 mM MnCl2, pH 7.0) was placed into each well. After addition of 75 μl Binding-Buffer, 50 μl of the radioligand ^3H-PGD2 (at 2.5 nM (220.000 dpm/well) from ANAWA ART0662) was added to each well. Binding assay was started by addition of 100 μl CRTH2 membrane fragments, reaching a final concentration of 20 μg/well. For non-specific binding, PGD2 was added to the reaction mixture to […] final concentration. This assay mix was incubated for 90 minutes at room temperature and then filtered through a GF/C filter 96-well plate which was pre-soaked for 3 hours in 0.5% polyethyleneimine (PEI). The filter-wells were washed three times with ice cold Binding-Buffer. Then, 40 μl of Microscint-40 (Packard) was added to each well and the retained radioactivity quantified in a Topcount (Packard).

Chain of hCRTH2 receptor (Q9Y5Y4 whole entry): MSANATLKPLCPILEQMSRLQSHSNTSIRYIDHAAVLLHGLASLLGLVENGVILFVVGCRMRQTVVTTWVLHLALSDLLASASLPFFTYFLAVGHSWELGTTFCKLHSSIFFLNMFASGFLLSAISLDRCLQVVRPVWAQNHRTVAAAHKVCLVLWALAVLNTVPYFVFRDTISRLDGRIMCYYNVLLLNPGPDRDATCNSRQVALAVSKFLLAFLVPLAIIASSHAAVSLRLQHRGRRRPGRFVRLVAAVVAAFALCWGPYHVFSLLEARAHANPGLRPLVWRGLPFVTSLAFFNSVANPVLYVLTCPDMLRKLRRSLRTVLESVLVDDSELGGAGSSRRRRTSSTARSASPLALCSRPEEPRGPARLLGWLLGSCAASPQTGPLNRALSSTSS

Row | SMILES | IC50 [nM]
1 | O=C(O)COc1ccc(F)cc1-c1cccc2c1CN(C(=O)OCc1ccccc1)CC2 [Example 173, 8-(2-Carboxymethoxy-5-fluoro-phenyl)-3,4-dihydro-1H-isoquinoline-2-carboxylic acid benzyl ester] | 91.4
2 | COc1ccc(CC(=O)O)cc1-c1ccc(F)c2c1CN(C(=O)C(C)Cc1ccccc1)CC2 (racemic) [Example 109, (±)-{3-[5-Fluoro-2-(2-methyl-3-phenyl-propionyl)-1,2,3,4-tetrahydro-isoquinolin-8-yl]-4-methoxy-phenyl}-acetic acid] | 28.9
3 | CC(CC(=O)N1CCc2c(F)ccc(-c3cc(CC(=O)O)ccc3OCC(F)(F)F)c2C1)c1ccccn1 (racemic) [Example 302] | 8.1
4 | COc1ccc(CC(=O)O)cc1-c1ccc(F)c2c1CN(C(=O)CC1(C)CCCc3ccccc31)CC2 (racemic) [Example 239] | 28.4
5 | COc1ccc(CC(=O)O)cc1-c1ccc(F)c2c1CN(C(=O)CCc1ccccn1)CC2 [Example 91, {3-[5-Fluoro-2-(3-pyridin-2-yl-propionyl)-1,2,3,4-tetrahydro-isoquinolin-8-yl]-4-methoxy-phenyl}-acetic acid] | 32.1
6 | O=C(O)Cc1cc(-c2ccc(F)c3c2CN(C(=O)OCc2ccccc2)CC3)ccc1F [Example 12, 8-(3-Carboxymethyl-4-fluoro-phenyl)-5-fluoro-3,4-dihydro-1H-isoquinoline-2-carboxylic acid benzyl ester] | 21.8
7 | COc1ccc(CC(=O)O)cc1-c1ccc(F)c2c1CN(C(=O)C1COc3ccccc3C1)CC2 (racemic) [Example 113, (±)-{3-[2-(Chroman-3-carbonyl)-5-fluoro-1,2,3,4-tetrahydro-isoquinolin-8-yl]-4-methoxy-phenyl}-acetic acid] | 18.6
8 | CCOc1cc(CC(=O)O)ccc1-c1ccc(F)c2c1CN(C(=O)Cc1ccccn1)CC2 [Example 342, {3-Ethoxy-4-[5-fluoro-2-(2-pyridin-2-yl-acetyl)-1,2,3,4-tetrahydro-isoquinolin-8-yl]-phenyl}-acetic acid] | 150
9 | COc1ccc(CC(=O)O)cc1-c1ccc(F)c2c1CN(C(=O)[C@@H]1CCCc3ccccc31)CC2 [Example 269, {3-[5-Fluoro-2-((R)-1,2,3,4-tetrahydro-naphthalene-1-carbonyl)-1,2,3,4-tetrahydro-isoquinolin-8-yl]-4-methoxy-phenyl}-acetic acid] | 95.7
10 | O=C(O)Cc1ccc(-c2ccc(F)c3c2CN(C(=O)OCc2ccccc2)CC3)c(F)c1 [Example 164, 8-(4-Carboxymethyl-2-fluoro-phenyl)-5-fluoro-3,4-dihydro-1H-isoquinoline-2-carboxylic acid benzyl ester] | 47.3
11 | CC(C)Oc1ccc(CC(=O)O)cc1-c1ccc(F)c2c1CN(C(=O)CC1CCOc3ccccc31)CC2 (racemic) [Example 290] | 5
12 | CCOc1ccc(CC(=O)O)cc1-c1ccc(F)c2c1CN(C(=O)NCc1ccccc1F)CC2 [Example 432, {4-Ethoxy-3-[5-fluoro-2-(2-fluoro-benzylcarbamoyl)-1,2,3,4-tetrahydro-isoquinolin-8-yl]-phenyl}-acetic acid] | 5.3
13 | COc1cc(CC(=O)O)cc(OC)c1-c1ccc(F)c2c1CN(C(=O)OCc1ccccc1)CC2 [Example 218, 8-(4-Carboxymethyl-2,6-dimethoxy-phenyl)-5-fluoro-3,4-dihydro-1H-isoquinoline-2-carboxylic acid benzyl ester] | 1.7
14 | CCOc1cc(CC(=O)O)ccc1-c1ccc(F)c2c1CN(C(=O)NCc1ccccn1)CC2 [Example 448, (3-Ethoxy-4-{5-fluoro-2-[(pyridin-2-ylmethyl)-carbamoyl]-1,2,3,4-tetrahydro-isoquinolin-8-yl}-phenyl)-acetic acid] | 9.2
15 | COc1ccc(CC(=O)O)cc1-c1ccc(F)c2c1CN(C(=O)CC(C)c1cccnc1)CC2 (racemic) [Example 266, (±)-{3-[5-Fluoro-2-(3-pyridin-3-yl-butyryl)-1,2,3,4-tetrahydro-isoquinolin-8-yl]-4-methoxy-phenyl}-acetic acid formiate] | 32.7
16 | COc1ccc(CC(=O)O)cc1-c1ccc(F)c2c1CCN(C(=O)COCc1ccccc1Cl)C2 [Example 103, (3-{2-[2-(2-Chloro-benzyloxy)-acetyl]-8-fluoro-1,2,3,4-tetrahydro-isoquinolin-5-yl}-4-methoxy-phenyl)-acetic acid] | 69.2

Row | SMILES | IC50 [nM]
17 | COc1ccc(CC(=O)O)cc1-c1ccc(F)c2c1CN(C(=O)OCc1cncnc1)CC2 [Example 152, 8-(5-Carboxymethyl-2-methoxy-phenyl)-5-fluoro-3,4-dihydro-1H-isoquinoline-2-carboxylic acid pyrimidin-5-ylmethyl ester] | 34.1
18 | COc1ccc(CC(=O)O)cc1-c1ccc(F)c2c1CN(C(=O)C1CC1)CC2 [Example 52, [3-(2-Cyclopropanecarbonyl-5-fluoro-1,2,3,4-tetrahydro-isoquinolin-8-yl)-4-methoxy-phenyl]-acetic acid] | 68.9
19 | COc1ccc(CC(=O)O)cc1-c1ccc(Cl)c2c1CN(C(=O)COCc1ccccc1Cl)CC2 [Example 73, (3-{5-Chloro-2-[2-(2-chloro-benzyloxy)-acetyl]-1,2,3,4-tetrahydro-isoquinolin-8-yl}-4-methoxy-phenyl)-acetic acid] | 30.2
20 | O=C(O)Cc1ccc(OCC(F)(F)F)c(-c2ccc(F)c3c2CN(C(=O)[C@@H]2C[C@H]2c2ccccc2)CC3)c1 [Example 426, [3-[5-Fluoro-2-((1R,2R)-2-phenyl-cyclopropanecarbonyl)-1,2,3,4-tetrahydro-isoquinolin-8-yl]-4-(2,2,2-trifluoro-ethoxy)-phenyl]-acetic acid] | 1.9
21 | COc1ccc(CC(=O)O)cc1-c1ccc(F)c2c1CN(C(=O)CC1CCCc3ccncc31)CC2 (racemic) [Example 247, hydrochloride] | 484
22 | COc1ccc(CC(=O)O)cc1-c1ccc(F)c2c1CN(C(=O)CC(C)C1CC1)CC2 (racemic) [Example 245] | 399
23 | COc1ccc(CC(=O)O)cc1-c1ccc(F)c2c1CN(C(=O)[C@@H]1C[C@H]1c1ccc(Cl)cc1)CC2 [Example 64, (3-{2-[(1R,2R)-2-(4-Chloro-phenyl)-cyclopropanecarbonyl]-5-fluoro-1,2,3,4-tetrahydro-isoquinolin-8-yl}-4-methoxy-phenyl)-acetic acid] | 1.12
24 | O=C(O)COc1cc(Cl)cc(-c2ccc(F)c3c2CN(C(=O)OCc2ccccc2)CC3)c1 [Example 144, 8-(3-Carboxymethoxy-5-chloro-phenyl)-5-fluoro-3,4-dihydro-1H-isoquinoline-2-carboxylic acid benzyl ester] | 86.2
25 | CC(C)Oc1cc(CC(=O)O)ccc1-c1ccc(F)c2c1CN(C(=O)CC(C)c1ccccn1)CC2 (racemic) [Example 346] | 3.7
26 | O=C(O)Cc1ccc(C(F)(F)F)c(-c2ccc(F)c3c2CN(C(=O)OCc2ccccc2)CC3)c1 [Example 8, 8-(5-Carboxymethyl-2-trifluoromethyl-phenyl)-5-fluoro-3,4-dihydro-1H-isoquinoline-2-carboxylic acid benzyl ester] | 7.31
27 | CCOc1ccc(CC(=O)O)cc1-c1ccc(F)c2c1CN(C(=O)OCCOC)CC2 [Example 378, 8-(5-Carboxymethyl-2-ethoxy-phenyl)-5-fluoro-3,4-dihydro-1H-isoquinoline-2-carboxylic acid 2-methoxy-ethyl ester] | 5.9
28 | O=C(O)Cc1ccc(F)c(-c2ccc(F)c3c2CN(C(=O)OCc2ccccc2)CC3)c1 [Example 10, 8-(5-Carboxymethyl-2-fluoro-phenyl)-5-fluoro-3,4-dihydro-1H-isoquinoline-2-carboxylic acid benzyl ester] | 10.1
29 | COc1ccc(CC(=O)O)cc1-c1ccc(F)c2c1CN(C(=O)CCc1ncccn1)CC2 [Example 93, {3-[5-Fluoro-2-(3-pyrimidin-2-yl-propionyl)-1,2,3,4-tetrahydro-isoquinolin-8-yl]-4-methoxy-phenyl}-acetic acid] | 690
30 | CCOc1ccc(CC(=O)O)cc1-c1ccc(F)c2c1CN(C(=O)NCc1ccccn1)CC2 [Example 449, (4-Ethoxy-3-{5-fluoro-2-[(pyridin-2-ylmethyl)-carbamoyl]-1,2,3,4-tetrahydro-isoquinolin-8-yl}-phenyl)-acetic acid] | 14.2
31 | COc1ccc(C(C)C(=O)O)cc1-c1ccc(F)c2c1CN(C(=O)[C@@H]1C[C@H]1c1ccccc1)CC2 (mixture of isomers) [Example 120, (±)-2-{3-[5-Fluoro-2-((1R,2R)-2-phenyl-cyclopropanecarbonyl)-1,2,3,4-tetrahydro-isoquinolin-8-yl]-4-methoxy-phenyl}-propionic acid] | 8.56
32 | O=C(O)CCCOc1ccc(F)cc1-c1cccc2c1CN(C(=O)OCc1ccccc1)CC2 [Example 174, 8-[2-(3-Carboxy-propoxy)-5-fluoro-phenyl]-3,4-dihydro-1H-isoquinoline-2-carboxylic acid benzyl ester] | 289
